Experimental data: article PMC12757955, “A nonavalent BODIPY with a multivalent arrangement of α-mannosides enables lectins recognition in fluorescence-based assays” (RSC Chemical Biology, 2025)

Key:
[1] = target: T1, ConA (Canavalia ensiformis, UniProt P02866); test: Competitive fluorescence polarization assay (displacement of Man9-BODIPY from ConA); format: binding
T1 construct: purchased Sigma Aldrich L7647-100MG
Method: Titration experiments allowed us to define the concentration of ConA to be used in a competitive displacement assay, which was set to 2 µM.
The fluorescence polarization is expressed in millipolarization (mP) units (A).
(§1) All experiments were performed at room temperature (25 °C).

[2] = target: T1, ConA
Method: Accordingly, preliminary agglutination experiments were performed by following a previously reported protocol,[28] thus expecting aggregation of lectin with the mannosylated BODIPYs driven by the molecular recognition of the mannose residues on the fluorescent probes. Accordingly, Tris-BODIPY-OH was used as a negative control. The changes in the absorption (λ = 490 nm) of the solutions of the glycoBODIPYs treated with a fixed concentration of ConA (20 µM in HEPES 25 mM, pH 7.6, 1 mM CaCl2, 1 mM MnCl2) were monitored over time (0–30 min, Fig. 3A).
Data are normalized according to the maximum optical density value.
A solution of ConA (20 µM) in the buffer (HEPES 25 mM pH 7.6, 1 mM CaCl2, 1 mM MnCl2) was prepared. In a 96-well plate (Microplate, 96 wells, PS, F-BOTTOM (CHIMNEY WELL), clear, non-binding) were placed 100 µL of the 20 µM solution of each BODIPY, then 100 µL of the solution of ConA was added. The mixture was gently shaken for 10 minutes, then the optical density at λ = 490 nm was measured every minute for 30 minutes. The measurements were carried out in triplicate.

[3] = target: T1, ConA; format: binding; conditions: FCS, probe 500 nM, ConA 50 nM
Method: 500 nM solution of each dye in the absence or presence of 50 nM ConA was placed in a glass-bottom ibidi 18-well µ-slides, precoated with albumin (Sigma Aldrich) to reduce dye adsorption to the surface. FCS experiments were performed with an Abberior Instruments microscope in the confocal mode using the Olympus UPlanSApo 60×/1.2 water immersion objective and steered through the Imspector software. Fluorescence was excited by a 561 nm pulsed excitation laser at an average power of around 10 µW, and detected by an avalanche photodiode through a 0.9 Airy-unit pinhole and a 580–630 nm emission filter (Semrock). Intensity fluctuations were acquired in 2 µs bins for 15–120 seconds at least 5 times per sample. The intensity traces were autocorrelated and further analysed with the open source FoCuS-scan software (https://github.com/dwaithe/FCS_scanning_correlator)[41] employing the 3D-diffusion model (fits in Fig. 8) with the aspect ratio of the optical point-spread-function and anomalous diffusion exponent fixed to 10 and 0.9, respectively.

[4] = target: T2, concanavalin A (ConA) (Canavalia ensiformis, UniProt P02866); test: Fluorescence polarization (FP) titration of BODIPY probes with ConA; format: binding; conditions: probe 0.5 µM, increasing ConA
T2 construct: purchased Sigma Aldrich L7647-100MG
Method: All experiments were conducted at 25 °C.
as §1

[5] = target: T1, ConA; format: binding; conditions: BODIPY 500 nM, ConA 500 nM
Method: Accordingly, FLIM was used in this work to directly visualize the formation of the glycoBODIPY/ConA complexes. […] The color scale in the images corresponds to the dye lifetime measured by FLIM for each pixel in the image.
Fig. 4 FLIM images measured for: (left panels) the (free) BODIPY solutions 500 nM in HEPES 25 mM pH 7.6, 1 mM CaCl2, 1 mM MnCl2 and for (right panels) solutions of the BODIPYs (500 nM) combined with ConA (500 nM in HEPES 25 mM pH 7.6, 1 mM CaCl2, 1 mM MnCl2).
FLIM was performed at room temperature (20 °C) on a Nikon Ti AX-R NSPARC confocal microscope using a Nikon Plan Apo λD 100× oil immersion objective (NA = 1.45). The microscope is equipped with a two-channel PicoQuant FLIM compact module system. Images of 1024 × 1024 pixels were acquired using a 488 nm pulsed laser for excitation and recording photons of fluorescence emission at a wavelength of 620 ± 50 nm for 90 s at a frequency of 25 MHz through a PMA Hybrid single photon counting module and a MultiHarp 150 multichannel event timer. Lifetime histograms were calculated and analyzed using SymphoTime©. Samples were inserted into LabteK chambers, and the images were acquired at 10 µm from the coverslip to avoid interactions of the dye with the surface of the coverslip.

Question: Which “Competitive displacement of the probe (in words)” value [1] does the source give for `OC[C@H]1OC(O)[C@@H](O)[C@@H](O)[C@@H]1O` (stereo partly drawn) [D-mannose] here?
Answer: competitively displaced the probe

Question: What about the mP0 [1] of the same molecule?
Answer: 113.9 ± 4.0

Question: What about the mPmax [1] of the same molecule?
Answer: 432 ± 13

Question: For `CO[C@H]1O[C@H](CO)[C@@H](O)[C@H](O)[C@@H]1O` [α-O-methyl-D-mannopyranoside], which “Deagglutination of glycoBODIPYs/ConA aggregates” value ([2]; 50 mM competitor added, optical density at 490 nm) is on record?
Answer: fast deagglutination process

Question: With `CC1=C(C#CCOCC(CO)(CO)CO)C(C)=[N+]2C1=C(c1ccc(-n3cc(COCC(CO)(CO)CO)nn3)cc1)c1c(C)c(C#CCOCC(CO)(CO)CO)c(C)n1[B-]2(F)F` [Tris-BODIPY-OH] as the molecule, how does the “Shift of the autocorrelation curve in the presence of ConA” value [3] read?
Answer: no shift was observed

Question: What about the “Change of turbidity / absorption (λ = 490 nm) over time with ConA” value ([2]; BODIPY 20 µM solution, ConA 20 µM solution, HEPES pH 7.6, 0–30 min) of the same molecule?
Answer: No change in the absorption

Question: And the “Binding to ConA in FP titration (in words)” value [4]?
Answer: did not bind to ConA

Question: And the “Change of fluorescence lifetime histogram in the presence of ConA” value [5]?
Answer: the peak of the histogram is unchanged
